Assay results taken from patent publication US4226980A, “Novel derivatives of fortimicin B and process for preparing same” (Abbott Laboratories, priority 1978, dated 1980).
Like-named read-outs stand apart in the source and are kept apart here.

How the values were obtained:
[1] = test system: various microorganisms including resistant strains; details: earlier patents; cited from earlier work
[2] = test system: Pseudomonas aeruginosa R9 KY8516; experiment: antibacterial activity (MIC), resistant strain; format: cell-based; details: medium pH 7.2; strain "producing kanamycin" (footnote 1); unit assumed
Protocol: (§1) Furthermore in the following Table 3, the antibacterial activity (MIC) of the compounds are set forth. The measurement was carried out according to the Japanese Antibiotic Medicament Standard using a medium having a pH of 7.2. Numbers of the compounds in Table 3 correspond to those in Tables 1 and 2.

[3] = test system: Escherichia coli R18 KY-8321; experiment: antibacterial activity (MIC), resistant strain; format: cell-based; details: medium pH 7.2; strain producing gentamicin nucleotidyltransferase and neomycin phosphotransferase II; unit assumed
Protocol: as §1

[4] = test system: Klebsiella pneumniae 3020 Y60; experiment: antibacterial activity (MIC), resistant strain; format: cell-based; details: medium pH 7.2; strain "producing gentamicin" (footnote 4); unit assumed
Protocol: as §1

[5] = test system: Escherichia coli 57R/W677; experiment: antibacterial activity (MIC), resistant strain; format: cell-based; details: medium pH 7.2; strain "producing gentamicin" (footnote 4); unit assumed
Protocol: as §1

[6] = test system: Escherichia coli R19 KY-8348; experiment: antibacterial activity (MIC), resistant strain; format: cell-based; details: medium pH 7.2; strain producing gentamicin acetyltransferase; unit assumed
Protocol: as §1

[7] = test system: Pseudomonas aeruginosa R4 KY8511; experiment: antibacterial activity (MIC), resistant strain; format: cell-based; details: medium pH 7.2; strain producing gentamicin acetyltransferase; unit assumed
Protocol: as §1

Providencia sp. 164 = experiment: antibacterial activity (MIC), resistant strain; format: cell-based; details: medium pH 7.2; strain producing gentamicin acetyltransferase (footnote 5); unit assumed
Protocol: as §1

[8] = test system: Escherichia coli R17 Z-343; experiment: antibacterial activity (MIC), resistant strain; format: cell-based; details: medium pH 7.2; strain "producing kanamycin" (footnote 1); unit assumed
Protocol: as §1

[9] = test system: Staphylococcus aureus Smith; experiment: antibacterial activity (MIC); format: cell-based; details: medium pH 7.2, Japanese Antibiotic Medicament Standard; unit assumed
Protocol: as §1

[10] = test system: Bacillus subtilis ATCC 6633; experiment: antibacterial activity (MIC); format: cell-based; details: medium pH 7.2, Japanese Antibiotic Medicament Standard; unit assumed
Protocol: as §1

[11] = test system: Klebsiella pneumoniae #8045; experiment: antibacterial activity (MIC); format: cell-based; details: medium pH 7.2, Japanese Antibiotic Medicament Standard; unit assumed
Protocol: as §1

Providencia sp. KY3950 = experiment: antibacterial activity (MIC); format: cell-based; details: medium pH 7.2, Japanese Antibiotic Medicament Standard; unit assumed
Protocol: as §1

[12] = test system: Pseudomonas aeruginosa BMH#10; experiment: antibacterial activity (MIC); format: cell-based; details: medium pH 7.2, Japanese Antibiotic Medicament Standard; unit assumed
Protocol: as §1

[13] = test system: Shigella sonnei ATCC 9290; experiment: antibacterial activity (MIC); format: cell-based; details: medium pH 7.2, Japanese Antibiotic Medicament Standard; unit assumed
Protocol: as §1

Escherichia coli 3100 = experiment: antibacterial activity (MIC); format: cell-based; details: medium pH 7.2, Japanese Antibiotic Medicament Standard; unit assumed
Protocol: as §1

Escherichia coli NIHJ-2 = experiment: antibacterial activity (MIC); format: cell-based; details: medium pH 7.2, Japanese Antibiotic Medicament Standard; unit assumed
Protocol: as §1

[14] = test system: Staphylococcus aureus 209-p; experiment: antibacterial activity (MIC); format: cell-based; details: medium pH 7.2, Japanese Antibiotic Medicament Standard; unit assumed
Protocol: as §1

[15] = strongly alkaline or alkaline conditions; cited from earlier work
[16] = format: physicochemical
Source text: That is, Compound I-a is almost decomposed in an alkaline solution with a pH of 10 at room temperature for 2 weeks to form compounds having low activity.

Compound | antibacterial activity (MIC) [2] | antibacterial activity (MIC) [3] | antibacterial activity (MIC) [4] | antibacterial activity (MIC) [5] | antibacterial activity (MIC) [6] | antibacterial activity (MIC) [7] | antibacterial activity (MIC) (Providencia sp. 164) | antibacterial activity (MIC) [8] | antibacterial activity (MIC) [9] | antibacterial activity (MIC) [10] | antibacterial activity (MIC) [11] | antibacterial activity (MIC) (Providencia sp. KY3950) | antibacterial activity (MIC) [12] | antibacterial activity (MIC) [13] | antibacterial activity (MIC) (Escherichia coli 3100) | antibacterial activity (MIC) (Escherichia coli NIHJ-2) | antibacterial activity (MIC) [14] | also measured
CNC1C(O)C(OC2OC(C(C)N)CCC2N)C(N)C(O)C1OC (stereo not drawn) [Compound 1, fortimicin B] | > 100 µg/mL | > 100 µg/mL | > 100 µg/mL | > 100 µg/mL | > 100 µg/mL | > 100 µg/mL | > 100 µg/mL | > 100 µg/mL | 100 µg/mL | 25 µg/mL | 100 µg/mL | > 100 µg/mL | > 100 µg/mL | > 100 µg/mL | 100 µg/mL | > 100 µg/mL | > 100 µg/mL | antibacterial activity (background) [1]: not as good as the other factors
COC1C(O)C(N)C(OC2OC(C(C)N)CCC2N)C(O)C1N(C)C(=O)CN (stereo not drawn) [Compound 2, fortimicin A, reference compound] | 12.5 µg/mL | 3.12 µg/mL | 6.25 µg/mL | 6.25 µg/mL | > 100 µg/mL | > 100 µg/mL | 3.12 µg/mL | 1.56 µg/mL | 1.56 µg/mL | 0.78 µg/mL | 1.56 µg/mL |  | 0.78 µg/mL | 6.25 µg/mL | 6.25 µg/mL | 1.56 µg/mL | 0.78 µg/mL | stability under alkaline conditions (background) [15]: slightly unstable; stability under strongly alkaline conditions ([16]; strongly alkaline conditions): slightly unstable
COC1C(O)C(N)C(OC2OC(C(C)N)CCC2N)C(O)C1N(C)C(=O)CNC(N)=O (stereo not drawn) [Compound 3, fortimicin C, reference compound] | 50 µg/mL | 12.5 µg/mL | 50 µg/mL | 6.25 µg/mL | > 100 µg/mL | > 100 µg/mL | 25 µg/mL | 3.12 µg/mL | 12.5 µg/mL | 3.12 µg/mL | 12.5 µg/mL | 25 µg/mL | 3.12 µg/mL | 25 µg/mL | 12.5 µg/mL | 3.12 µg/mL | 6.25 µg/mL | stability under alkaline conditions (background) [15]: slightly unstable; stability under strongly alkaline conditions [16]: slightly unstable
COC1C(O)C(N)C(OC2OC(C(C)N)CCC2NCCN)C(O)C1N(C)CCN (stereo not drawn) [Compound 5, 4,2'-di-N-(2-aminoethyl)fortimicin B] | > 100 µg/mL | 6.25 µg/mL | 25 µg/mL | 6.25 µg/mL | 25 µg/mL | 100 µg/mL | 50 µg/mL | 3.12 µg/mL | 1.56 µg/mL | 1.56 µg/mL | 3.12 µg/mL | 12.5 µg/mL | 1.56 µg/mL | 12.5 µg/mL | 6.25 µg/mL | 3.12 µg/mL | 1.56 µg/mL | 
COC1C(O)C(N)C(OC2OC(C(C)N)CCC2NC(=O)CN)C(O)C1N(C)C[C@@H](O)CCN (stereo partly drawn) [Compound 6, 4-N-[(S)-4-amino-2-hydroxybutyl]-2'-N-glycylfortimicin B] | 25 µg/mL | 3.12 µg/mL | 6.25 µg/mL | 6.25 µg/mL | 3.12 µg/mL | 50 µg/mL | 6.25 µg/mL | 1.56 µg/mL | 0.78 µg/mL | 0.78 µg/mL | 1.56 µg/mL | 6.25 µg/mL | 0.78 µg/mL | 6.25 µg/mL | 6.25 µg/mL | 3.12 µg/mL | 1.56 µg/mL | 
COC1C(O)C(N)C(OC2OC(C(C)N)CCC2NCCN)C(O)C1N(C)C[C@@H](O)CCN (stereo partly drawn) [Compound 7, 4-N-[(S)-4-amino-2-hydroxybutyl]-2'-N-(2-aminoethyl)fortimicin B] | 6.25 µg/mL | 3.12 µg/mL | 6.25 µg/mL | 3.12 µg/mL | 0.78 µg/mL | 12.5 µg/mL | 12.5 µg/mL | 0.78 µg/mL | 1.56 µg/mL | 0.4 µg/mL | 0.78 µg/mL | 6.25 µg/mL | 0.78 µg/mL | 3.12 µg/mL | 3.12 µg/mL | 3.12 µg/mL | 0.78 µg/mL | 
COC1C(O)C(N)C(OC2OC(C(C)N)CCC2NC(=O)[C@@H](O)CCN)C(O)C1N(C)C[C@@H](O)CCN (stereo partly drawn) [Compound 8, 4-N-[(S)-4-amino-2-hydroxybutyl]-2'-N-[(S)-4-amino-2-hydroxybutyryl]fortimicin B] | 50 µg/mL | 6.25 µg/mL | 12.5 µg/mL | 3.12 µg/mL | 3.12 µg/mL | 100 µg/mL | 6.25 µg/mL | 0.78 µg/mL | 1.56 µg/mL | 0.78 µg/mL | 1.56 µg/mL | 6.25 µg/mL | 0.78 µg/mL | 6.25 µg/mL | 3.12 µg/mL | 1.56 µg/mL | 0.78 µg/mL | 
COC1C(O)C(N)C(OC2OC(C(C)N)CCC2NC[C@@H](O)CCN)C(O)C1N(C)C[C@@H](O)CCN (stereo partly drawn) [Compound 9, 4,2'-di-N-[(S)-4-amino-2-hydroxybutyl]fortimicin B] | 3.12 µg/mL | 1.56 µg/mL | 3.12 µg/mL | 3.12 µg/mL | 6.25 µg/mL | 100 µg/mL | 3.12 µg/mL | 1.56 µg/mL | 0.78 µg/mL | 0.4 µg/mL | 1.56 µg/mL | 1.56 µg/mL | 0.78 µg/mL | 3.12 µg/mL | 3.12 µg/mL | 1.56 µg/mL | 0.78 µg/mL | 
COC1C(O)C(N)C(OC2OC(C(C)N)CCC2NCCO)C(O)C1N(C)C[C@@H](O)CCN (stereo partly drawn) [Compound 10, 4-N-[(S)-4-amino-2-hydroxybutyl]-2'-N-(2-hydroxyethyl)fortimicin B] | 50 µg/mL | 1.56 µg/mL | 100 µg/mL | 3.12 µg/mL | 100 µg/mL | > 100 µg/mL | 50 µg/mL | 3.12 µg/mL | 0.78 µg/mL | 0.78 µg/mL | 6.25 µg/mL | 12.5 µg/mL | 1.56 µg/mL | 6.25 µg/mL | 3.12 µg/mL | 6.25 µg/mL | 1.56 µg/mL | 
NC[C@H]1O[C@H](O[C@H]2[C@H](O)[C@@H](O[C@H]3O[C@H](CO)[C@@H](O)[C@H](N)[C@H]3O)[C@H](N)C[C@@H]2N)[C@H](O)[C@@H](O)[C@@H]1O [KA, kanamycin A, reference compound] | > 100 µg/mL | > 100 µg/mL | > 100 µg/mL | 100 µg/mL | > 100 µg/mL | > 100 µg/mL | > 100 µg/mL | 12.5 µg/mL | 0.4 µg/mL | 0.4 µg/mL | 0.78 µg/mL | 12.5 µg/mL | 25 µg/mL | 3.12 µg/mL | 3.12 µg/mL | 1.56 µg/mL | 0.4 µg/mL | 
